One experiment deals with MCMV (Smith strain). The experiment can be described thus: MCMV infection of BALB/c mice. Type of experiment: in vivo, mouse. Particulars: after infection, 10 mg/kg twice daily for 5 days. The protocol: Animal work was carried out in strict accordance with the recommendations in the Guide for the Care and Use of Laboratory Animals of the National Institutes of Health. The animal protocol (number MO13M296) was approved by the Institutional Animal Care and Use Committee (IACUC) of Johns Hopkins University. For infection experiments 3-4 week old BALB/c mice were purchased from Harlan Laboratories (Indianapolis, Ind.). […] IMMUNOL. 980-86 (2011)) or saline intraperitoneally. Blood was collected 4 h after the second dose of iE-DAP for measurement of RANTES by ELISA (R&D Biosystems, Minneapolis, Minn.). Mice were infected with 10^6 PFU tissue culture derived MCMV (Smith strain, ATCC, VR-1399) and scarified after 14 days. Intracardiac blood was collected prior to sacrifice for gB real-time PCR assay (Vliegen et al., 98(1) VIRUS RES. 17-25 (2003)). Salivary glands, liver and spleen were harvested and stored at −80° C. Organs were homogenized in DMEM at a final concentration of 100 mg/mL Two million mouse embryonic fibroblast (MEFs) were seeded into 24-well plates. From each sample, 2.5% of the salivary gland or 10% of liver/spleen homogenate was used for infection of MEFs in triplicates. Plaques were counted after three days.
At 14 days' post infection mice were scarified, intracardiac blood was collected and tissue homogenates were prepared for plaque assays.

The test system of experiment [1] is pp28-luciferase Towne strain. As to the kind of experiment: pp28-luciferase HCMV replication assay (first and second cycle). The format is cell-based, human cytomegalovirus. The protocol: Human Foreskin Fibroblasts (HFFs) passage 12-16 (ATCC, CRL-2088™) were grown in Dulbecco's Modified Eagle Medium (DMEM) containing 10% fetal bovine serum (FBS) (Gibco, Carlsbad, Calif.) in a 5% CO2 incubator at 37° C. The generation of NOD2-KD HFFs (HFF-shNOD2) and control cells (HFF-GIPZ) was reported. One day prior to infection or treatment, 8×10^4 cells were seeded into each well of 12-well tissue culture plates. Multiplicities of infection were specified for each experiment. The Towne HCMV strain was obtained from ATCC (VR-977). The pp28-luciferase Towne strain which expresses luciferase under the control of the pp28 late promoter has been described. Luciferase activity was measured at 72 or 96 hours post infection (hpi) using the Glomax-Multi+ Detection System (Promega, Madison, Wis.). In second cycle replication assays cell free supernatants from HFFs infected with pp28-luciferase Towne were collected 4 days post completion of first replication cycle (5-10% of total volume/well), and used for infection of fresh HFFs seeded into 12-well plates. Cell lysates were collected after 72 h for luciferase activity. Supernatants from the first cycle were also used to measure virus titer in 12-well plates and plaques were counted at day 8 post infection. A purified preparation of the pp28-luciferase Towne strain was prepared by ultracentrifugation using sucrose gradient. The HCMV TB40 strain was obtained from ATCC (VR-1578). Clinical isolates of HCMV were obtained from the microbiology laboratory at Johns Hopkins Hospital with no identifiers that could be linked to a patient. The Johns Hopkins School of Medicine Office of Human Subject Research Institutional Review Board (IRB-X) determined that the research qualified for an exemption.

The next experiment deals with HIV-1. The following applies: acutely infected monocyte-derived macrophages and dendritic cells; cited from earlier work.

On to `Nc1nc(O)c2ncn(COC(CO)CO)c2n1` [Ganciclovir], for which the MCMV inhibition result in the experiment on MCMV (Smith strain) was “inhibited MCMV”. For the compound `C[C@H](N)C(=O)N[C@H](CCC(=O)NC(CCCC(N)C(=O)O)C(=O)O)C(=O)O` (stereo partly drawn) [Tri-DAP, L-Ala-γ-D-Glu-meso-diamino-pimelic acid], in experiment [1] (Tri-DAP 10 μg/mL after infection, 72 hpi), the “CMV inhibition (luciferase, protein expression, plaques)” value is recorded as “results in CMV inhibition”. For the same compound, the CMV replication entry in experiment [1] (Tri-DAP 10 μg/mL pretreatment 18 or 72 h, MOI 1) is on record as “inhibits CMV replication”.

For the compound `CCCCOC(=O)[C@@H](CCC(N)=O)NC(=O)[C@H](C)NC(=O)[C@@H](C)O[C@H]1[C@H](O)[C@@H](CO)OC(O)[C@@H]1NC(C)=O` (stereo partly shown) [MB, murabutide], the HIV-1 replication result in the experiment on HIV-1 was “significantly inhibits HIV-1 replication”.

The record behind these values is patent publication US20170021014A1, “VACCINE ADJUVANTS FOR CYTOMEGALOVIRUS PREVENTION AND TREATMENT” (THE JOHNS HOPKINS UNIVERSITY, priority 2015, published 2017).
